Results taken from paper PMC12040169 (PLOS Biology, 2025).

Experiment: in vitro
Conditions: human, hela cells, % viability

| SMILES | viability at 28.5 h, 10 µM |
| --- | --- |
| Cn1nc(C2CCN(C(=O)c3ccccc3F)CC2)c2cccnc21 [CBK285019] | 106% |
| CC1CCN(Cc2c(C3CCNCC3)[nH]c3ncccc23)CC1 [CBK285022] | 91.7% |
| CN1CCN(C(=O)CCn2c(C(F)F)cc3cccnc32)CC1 [CBK285023] | 101% |
| CC1CCCCN1C(=O)CCn1c(C(F)F)cc2cccnc21 (stereo not drawn) [CBK285024] | 89.5% |
| O=C(CCn1c(C(F)F)cc2cccnc21)NCc1ccncc1 [CBK285027] | 103% |
| CC(CC(=O)N1CCC(c2cc3cccnc3[nH]2)CC1)n1ccnc1 (stereo not drawn) [CBK285028] | 107% |
| Cc1[nH]ncc1CN1CCCC(c2cc3ccccc3cn2)C1 (stereo not drawn) [CBK285029] | 108% |
| CC(=O)NC(c1ccccn1)C1CCCN(C(=O)C2CCCCC2)C1 (stereo not drawn) [CBK285031] | 109% |
| CC(=O)NC(c1ccccn1)C1CCCN(C(=O)C2CC2C)C1 (stereo not drawn) [CBK285032] | 84.2% |
| CC(CC(=O)N1CCCC(c2cc3cccnc3[nH]2)C1)n1ccnc1 (stereo not drawn) [CBK285034] | 105% |
| CC(C)(C)C(=O)N1CCC(c2nc3ccccc3cc2N)CC1 [CBK285039] | 101% |
| Cc1nn(C)cc1CN1CCCC(c2cc3ccccc3cn2)C1 (stereo not drawn) [CBK285041] | 108% |
| Cc1csc(C(Cc2ccsc2)NC(=O)c2c(C)noc2C)n1 (stereo not drawn) [CBK285045] | 102% |
| Cc1csc(C(Cc2ccsc2)NC(=O)CN2CCCC2=O)n1 (stereo not drawn) [CBK285046] | 81.9% |
| Cc1csc(C(Cc2cccs2)NCC2CCOC2)n1 (stereo not drawn) [CBK285051] | 110% |
| O=C(NC(Cc1cccs1)c1nccs1)c1cc[nH]n1 (stereo not drawn) [CBK285052] | 87.4% |
| O=C(NC(Cc1cccs1)c1nccs1)C1CCOC1 (stereo not drawn) [CBK285054] | 80.6% |
| Cc1csc(C(Cc2cccs2)NC(=O)C2CCC(=O)N2)n1 (stereo not drawn) [CBK285056] | 104% |
| CC(C)OC(=O)Cn1c(C2CCCNC2)cc2cccnc21 (stereo not drawn) [CBK285058] | 100% |
| O=C(Cn1c(C2CCCNC2)cc2cccnc21)NC1CCCC1 (stereo not drawn) [CBK285059] | 97.5% |
| O=C(CCn1c(C(F)F)cc2cccnc21)NCc1cccnc1 [CBK285066] | 91.9% |

| SMILES | viability at 28.5 h, 10 µM |
| --- | --- |
| CC(NC(=O)CCn1c(C(F)F)cc2cccnc21)c1ccncc1 (stereo not drawn) [CBK285069] | 91.6% |
| Cc1cc(NC(=O)CCn2c(C(F)F)cc3cccnc32)nn1C [CBK285071] | 90.2% |
| CCn1nc(NC(=O)CCn2c(C(F)F)cc3cccnc32)cc1C [CBK285072] | 83.8% |
| Cn1nccc1C(=O)N[C@H]1CCC[C@@H](c2c[nH]c3ccccc23)C1 [CBK285073] | 93.6% |
| Cc1cc(C)n(CC(=O)N2CCCC2c2cc3cccnc3[nH]2)n1 (stereo not drawn) [CBK285074] | 97.1% |
| CC(C)OC(=O)Cn1c(C2CCNCC2)cc2cccnc21 [CBK285075] | 99.9% |
| COc1cccc(Cn2c(C3CCNCC3)cc3cccnc32)c1 [CBK285076] | 91.5% |
| COc1ccc(Cn2c(C3CCNCC3)cc3cccnc32)cc1 [CBK285077] | 96.1% |
| CC1CCCN(Cc2c(C3CCNCC3)[nH]c3ncccc23)C1 (stereo not drawn) [CBK285078] | 78.5% |
| CN(Cc1c(C2CCNCC2)[nH]c2ncccc12)C1CCCCC1 [CBK285079] | 93.3% |
| O=C(c1cccc(F)c1)N1CCCC1c1cc2cccnc2[nH]1 (stereo not drawn) [CBK285081] | 93.1% |
| COc1cccc(C(=O)N2CCCC2c2cc3cccnc3[nH]2)c1 (stereo not drawn) [CBK285082] | 96.4% |
| CN(Cc1ccccc1)Cc1c(C2CCNCC2)[nH]c2ncccc12 [CBK285083] | 96% |
| CC1CCCN(Cc2c(C3CCNCC3)[nH]c3ncccc23)C1C (stereo not drawn) [CBK285084] | 89.1% |
| CCC(C)NC(=O)Cn1cccc2cc(C3CCCNC3)nc1-2 (stereo not drawn) [CBK285087] | 98.2% |
| O=C(Cn1cccc2cc(C3CCCNC3)nc1-2)N1CCCCCC1 (stereo not drawn) [CBK285088] | 93.2% |
| Cc1csc([C@H]2Cc3ccsc3[C@@H](C3CCOC3)N2)n1 (stereo partly drawn) [CBK285089] | 102% |
| CC1CC1C(=O)N1CCC(c2nc3ccccc3cc2N)CC1 (stereo not drawn) [CBK285090] | 98.8% |
| Cn1nc(C2CCN(Cc3ccccc3)CC2)c2cccnc21 [CBK285095] | 94.9% |
| O=C(NC(Cc1ccsc1)c1nccs1)C1CC2C=CC1O2 (stereo not drawn) [CBK285096] | 91.9% |
| Cc1csc(C(Cc2ccsc2)NC(=O)Cc2ccccn2)n1 (stereo not drawn) [CBK285097] | 94.9% |

| SMILES | viability at 28.5 h, 10 µM |
| --- | --- |
| Cc1csc(C(Cc2ccsc2)NC(=O)c2scnc2C)n1 (stereo not drawn) [CBK285098] | 106% |
| Cc1csc(C(Cc2ccsc2)NC(=O)CCc2ccno2)n1 (stereo not drawn) [CBK285099] | 100% |
| Cc1noc(C)c1C(=O)NC(Cc1ccsc1)c1cccnc1 (stereo not drawn) [CBK285100] | 90.3% |
| CC(=O)NC(c1ccccn1)C1CCCN(C(=O)C(C)(C)C)C1 (stereo not drawn) [CBK285101] | 91.6% |
| Cc1ccsc1C(=O)N1CCC(c2nn(C)c3ncccc23)CC1 [CBK285102] | 96.6% |
| CC(=O)N1Cc2cc(C)ccc2OC2(CCCN(CC3CC3)C2)C1 (stereo not drawn) [CBK285104] | 88.7% |
| Cc1noc(C)c1C(=O)N1CCCCCC1c1nn(C)cc1Cl (stereo not drawn) [CBK285106] | 101% |
| Cc1csc(C(Cc2ccsc2)NC(=O)C2CC3C=CC2O3)n1 (stereo not drawn) [CBK285108] | 102% |
| CC1CCCN(Cc2c(C3CCCNC3)[nH]c3ncccc23)C1 (stereo not drawn) [CBK285112] | 70.3% |
| Cc1csc(C(Cc2ccsc2)NC(=O)Cn2ccnc2)n1 (stereo not drawn) [CBK285113] | 106% |
| Cn1cc(C(=O)NC(Cc2ccsc2)c2cccnc2)cn1 (stereo not drawn) [CBK285118] | 99.9% |
| Cn1cc(C2CCCCCN2C(=O)c2ccccc2F)cn1 (stereo not drawn) [CBK285119] | 107% |
| Cc1cc(C(=O)N2CCCCCC2c2nn(C)cc2Cl)on1 (stereo not drawn) [CBK285121] | 107% |
| Cc1csc(C(Cc2cccs2)NC(=O)C2CCOC2)n1 (stereo not drawn) [CBK285123] | 106% |
| Cc1cnc(C(=O)N[C@H]2C3CCCCC3[C@@H]2c2ccccc2)cn1 (stereo partly drawn) [CBK285125] | 102% |
| Cn1nccc1C(=O)N[C@H]1C2CCCCC2[C@@H]1c1ccccc1 (stereo partly drawn) [CBK285127] | 102% |
| Cc1nc(C)n(CC(=O)N[C@H]2C3CCCCC3[C@@H]2c2ccccc2)n1 (stereo partly drawn) [CBK285128] | 94.7% |
| Cn1cc(C(=O)N2CCc3ncc(Cl)cc3C2)ccc1=O [CBK285130] | 100% |
| CN1Cc2ccccc2OC2(CCCN(C(=O)C3CC3)CC2)C1 (stereo not drawn) [CBK285131] | 110% |
| CC(C)C(=O)N1CCCC2(CC1)CN(C)Cc1ccccc1O2 (stereo not drawn) [CBK285132] | 103% |
| O=C(NC(Cc1cccs1)c1nccs1)c1cccnc1 (stereo not drawn) [CBK285133] | 98.3% |

| SMILES | viability at 28.5 h, 10 µM |
| --- | --- |
| Cn1ccc(C(=O)NC(Cc2cccs2)c2nccs2)n1 (stereo not drawn) [CBK285135] | 91.4% |
| Cc1ccn(CCC(=O)NC(Cc2ccsc2)c2nccs2)n1 (stereo not drawn) [CBK285137] | 92.5% |
| Cn1nccc1C(=O)NC(Cc1ccsc1)c1nccs1 (stereo not drawn) [CBK285138] | 98.1% |
| CCc1nccn1CC(=O)NC(Cc1ccsc1)c1nccs1 (stereo not drawn) [CBK285139] | 111% |
| Cc1ccnn1C(C)C(=O)NC(Cc1ccsc1)c1nccs1 (stereo not drawn) [CBK285141] | 92.1% |
| CCc1onc(C)c1C(=O)NC(Cc1ccsc1)c1nccs1 (stereo not drawn) [CBK285142] | 94% |
| Cn1ccc(C(=O)NC(Cc2ccsc2)c2nccs2)cc1=O (stereo not drawn) [CBK285143] | 87% |
| Cc1cc(C[C@@H]2COC[C@H]2NCC(C)c2ccccc2)on1 (stereo partly drawn) [CBK285145] | 88.5% |
| CC(=O)NC(c1nccs1)C1CCCN(CC2CCCCC2)C1 (stereo not drawn) [CBK285152] | 95.1% |
| O=C(CCC1CCCO1)NC(Cc1ccsc1)c1cccnc1 (stereo not drawn) [CBK285159] | 87.6% |
| c1ccc([C@@H]2CN(Cc3ccncc3)C[C@H]2c2cc[nH]n2)cc1 [CBK285161] | 88% |
| c1ccc([C@@H]2CN(Cc3ccccn3)C[C@H]2c2cc[nH]n2)cc1 [CBK285162] | 105% |
| c1ccc([C@@H]2CN(CC3CCOC3)C[C@H]2c2cc[nH]n2)cc1 (stereo partly drawn) [CBK285163] | 110% |
| Cc1cnc2[nH]c(C3CCCN(C(=O)c4cccnc4)C3)cc2c1 (stereo not drawn) [CBK285168] | 86.1% |
| Cc1cnc2[nH]c(C3CCCN(C(=O)c4cccnc4C)C3)cc2c1 (stereo not drawn) [CBK285169] | 101% |
| CCN(CC)CC1CCCN(C(=O)CCn2ccc3ccncc32)C1 (stereo not drawn) [CBK285174] | 85.4% |
| COc1ccccc1CC(C)NC(=O)CCn1ccc2ccncc21 (stereo not drawn) [CBK285175] | 93.8% |
| Cc1ccc2nc(-c3ccc4c(c3)CCN4S(C)(=O)=O)cn2c1 [CBK285185] | 96.6% |
| Cc1nc(C)c(C(=O)N2CCC(c3cc4c(C)cccc4cn3)CC2)o1 [CBK285186] | 108% |
| Cn1ccnc1C1(O)C2CCCC1CN(Cc1ccc(F)c(F)c1)C2 (stereo not drawn) [CBK285189] | 95.1% |
| CS(=O)(=O)N1CCc2cc(-c3cn4ccccc4n3)ccc21 [CBK285190] | 85.6% |
